From patent US20200236940A1, “2-(HET)ARYL-SUBSTITUTED FUSED HETEROCYCLE DERIVATIVES AS PESTICIDES” (Bayer Aktiengesellschaft, priority 2017, published 2020) come the findings set out here.

Holding throughout (type): in vivo
The subject of experiment [1] is Nilaparvata lugens. Description: Nilaparvata lugens spray test (NILALU). To be noted: 96 h, 4 dat, read-out: % efficacy. As for the experimental part:
Nilaparvata lugens—Spray Test (NILALU)
(§1) To produce a suitable active ingredient formulation, 1 part by weight of active ingredient is dissolved with the specified parts by weight of solvent and made up to the desired concentration with water containing an emulsifier concentration of 1000 ppm. To produce further test concentrations, the formulation is diluted with emulsifier-containing water. If the addition of ammonium salts or/and penetrants is required, these are each added in a concentration of 1000 ppm to the formulation solution.
Rice plants (Oryza sativa) are sprayed with an active ingredient formulation of the desired concentration and then populated with larvae of the brown planthopper (Nilaparvata lugens).
[…], the efficacy in % is determined. 100% means that all of the planthoppers have been killed; 0% means that none of the planthoppers have been killed.

Experiment [2] has as its system Nezara viridula. Description: Nezara viridula spray test. The following applies: 96 h, NEZAVI, 500 g of ai/ha, 4 dat, read-out: % efficacy. As for the experimental part: Nezara viridula—Spray Test [table] To produce a suitable active ingredient formulation, 1 part by weight of active ingredient is dissolved with the specified parts by weight of solvent and made up to the desired concentration with water containing an emulsifier concentration of 1000 ppm. To produce further test concentrations, the formulation is diluted with emulsifier-containing water. If the addition of ammonium salts or/and penetrants is required, these are each added in a concentration of 1000 ppm to the formulation solution. Barley plants (Hordeum vulgare) infected with larvae of the Southern green shield bug (Nezara viridula) are sprayed with an active ingredient formulation of the desired concentration. After the desired period of time, the efficacy in % is determined. 100% means that all of the shield bugs have been killed; 0% means that none of the shield bugs have been killed.

Experiment [3] concerns Phaedon cochleariae. Kind of experiment: Phaedon cochleariae spray test (PHAECO), cabbage leaves. The following applies: 168 h, 7 dat, read-out: % efficacy. As for the experimental part:
Phaedon cochleariae—Spray Test (PHAECO)
Solvent: 14 parts by weight of dimethylformamide
Emulsifier: alkylaryl polyglycol ether
as §1
Cabbage leaves (Brassica oleracea) are sprayed with an active ingredient formulation of the desired concentration and populated with larvae of the mustard beetle (Phaedon cochleariae).
After the desired time, the kill in % is determined. 100% means that all the beetle larvae have been killed; 0% means that no beetle larvae have been killed.

The test system of experiment [4] is Spodoptera frugiperda. Description: Spodoptera frugiperda drench test (SPODFR D). The following applies: soil, 336 h, 14 dat, read-out: % efficacy. As for the experimental part: Spodoptera frugiperda—Drench Test (SPODFR D) [table] To produce a suitable active ingredient formulation, 1 part by weight of active ingredient is mixed with the specified amounts of solvent and emulsifier, and the concentrate is diluted with water to the desired concentration, it being necessary to take into account the volume of soil which is drenched. It should be ensured that a concentration of 40 ppm of emulsifier in the soil is not exceeded. To produce further test concentrations, water is used for dilution. Maize plants (Zea mays) in pots of soil are watered with an active ingredient formulation of the desired concentration and infected with caterpillars of the armyworm (Spodoptera frugiperda). After the desired time, the kill in % is determined. 100% means that all caterpillars have been killed; 0% means that none of the caterpillars have been killed.

Experiment [5] relates to Spodoptera frugiperda. Kind of experiment: Spodoptera frugiperda spray test (SPODFR S), cotton leaves. The following applies: 168 h, 7 dat, read-out: % efficacy. As for the experimental part: Spodoptera frugiperda—Spray Test (SPODFR S) Solvent: 14 parts by weight of dimethylformamide Emulsifier: alkylaryl polyglycol ether To produce a suitable active ingredient formulation, 1 part by weight of active ingredient is dissolved with the specified parts by weight of solvent and made up to the desired concentration with water containing an emulsifier concentration of 1000 ppm. To produce further test concentrations, the formulation is diluted with emulsifier-containing water. If the addition of ammonium salts or/and penetrants is required, these are each added in a concentration of 1000 ppm to the formulation solution. Cotton leaves (Gossypium hirsutum) are sprayed with an active ingredient formulation of the desired concentration and populated with caterpillars of the armyworm (Spodoptera frugiperda). After the desired time, the kill in % is determined. 100% means that all caterpillars have been killed; 0% means that none of the caterpillars have been killed.

In experiment [6] the test system is Myzus persicae. Kind of experiment: Myzus persicae spray test (MYZUPE), Chinese cabbage leaf discs. To be noted: foliar, 120 h. The procedure: Myzus persicae—Spray Test [table] To produce a suitable active ingredient formulation, 1 part by weight of active ingredient is dissolved with the specified parts by weight of solvent and made up to the desired concentration with water containing an emulsifier concentration of 1000 ppm. To produce further test concentrations, the formulation is diluted with emulsifier-containing water. Discs of Chinese cabbage leaves (Brassica pekinensis) infested by all stages of the green peach aphid (Myzus persicae) are sprayed with an active ingredient formulation of the desired concentration. After 5 days, the efficacy in % is determined. 100% means that all the aphids have been killed; 0% means that no aphids have been killed. Myzus persicae—Spray Test (MYZUPE) [table] To produce a suitable active ingredient formulation, 1 part by weight of active ingredient is dissolved with the specified parts by weight of solvent and made up to the desired concentration with water containing an emulsifier concentration of 1000 ppm. To produce further test concentrations, the formulation is diluted with emulsifier-containing water. Discs of Chinese cabbage leaves (Brassica pekinensis) infested by all stages of the green peach aphid (Myzus persicae) are sprayed with an active ingredient formulation of the desired concentration. After the desired period of time, the efficacy in % is determined. 100% means that all the aphids have been killed; 0% means that no aphids have been killed.

Experiment [7] deals with Myzus persicae. Description: Myzus persicae spray test, bell pepper plants. The following applies: application rate 20 ppm, after 6 days. The procedure: Myzus persicae—Spray Test Solvent: 14 parts by weight of dimethylformamide Emulsifier: alkylaryl polyglycol ether To produce a suitable active ingredient formulation, 1 part by weight of active ingredient is dissolved with the specified parts by weight of solvent and made up to the desired concentration with water containing an emulsifier concentration of 1000 ppm. To produce further test concentrations, the formulation is diluted with emulsifier-containing water. If the addition of ammonium salts or/and penetrants is required, these are each added in a concentration of 1000 ppm to the formulation solution. Bell pepper plants (Capsicum annuum) severely infested with the green peach aphid (Myzus persicae) are treated by spraying with the active ingredient formulation in the desired concentration. After 6 days, the kill in % is determined. 100% means that all of the aphids have been killed; 0% means that none of the aphids have been killed.

In experiment [8] the test system is Musca domestica. Description: Musca domestica test. The following applies: application rate 100 ppm, after 2 days, adult houseflies. As for the experimental part:
Musca domestica Test Solvent: dimethyl sulfoxide To produce a suitable active ingredient formulation, 10 mg of active ingredient are mixed with 0.5 ml of dimethyl sulfoxide, and the concentrate is diluted with water to the desired concentration. Vessels containing a sponge treated with sugar solution and the desired concentration of active ingredient formulation are populated with 10 adult houseflies (Musca domestica). After 2 days, the kill in % is determined. 100% means that all the flies were killed; 0% means that no flies were killed.

Experiment [9] has as its system Lucilia cuprina. Kind of experiment: Lucilia cuprina test. The following applies: after 2 days, L1 larvae. The procedure:
Lucilia cuprina Test Solvent: dimethyl sulfoxide To produce a suitable active ingredient formulation, 10 mg of active ingredient are mixed with 0.5 ml of dimethyl sulfoxide, and the concentrate is diluted with water to the desired concentration. About 20 L1 larvae of the Australian sheep blowfly (Lucilia cuprina) are transferred into a test vessel containing minced horsemeat and the active ingredient formulation of the desired concentration. After 2 days, the kill in % is determined. 100% means that all the larvae have been killed; 0% means that no larvae have been killed.

In experiment [10] the test system is Ctenocephalides felis. Kind of experiment: Ctenocephalides felis in vitro contact test with adult cat fleas. To be noted: application rate 5 μg/cm^2 (=500 g/ha), after 48 h. As for the experimental part: Ctenocephalides felis—In Vitro Contact Tests with Adult Cat Fleas For the coating of the test tubes, 9 mg of active ingredient are first dissolved in 1 ml of acetone p.a. and then diluted to the desired concentration with acetone p.a. 250 μl of the solution are distributed homogeneously on the inner walls and the base of a 25 ml glass tube by turning and rocking on an orbital shaker (rocking rotation at 30 rpm for 2 h). With 900 ppm of active ingredient solution and internal surface area 44.7 cm^2, given homogeneous distribution, an area-based dose of 5 μg/cm^2 is achieved. After the solvent has evaporated off, the tubes are populated with 5-10 adult cat fleas (Ctenocephalides felis), sealed with a perforated plastic lid and incubated in a horizontal position at room temperature and ambient humidity. After 48 h, efficacy is determined. To this end, the tubes are stood upright and the fleas are knocked to the base of the tube. Fleas which remain motionless at the base or move in an uncoordinated manner are considered to be dead or moribund. […] 100% efficacy means that all the fleas were dead or moribund. 0% efficacy means that no fleas were harmed.

In experiment [11] the test system is Ctenocephalides felis. Kind of experiment: Ctenocephalides felis oral test. The following applies: application rate 100 ppm, after 2 days. The procedure: Ctenocephalides felis—Oral Test Solvent: dimethyl sulfoxide To produce a suitable active ingredient formulation, 10 mg of active ingredient are mixed with 0.5 ml of dimethyl sulfoxide. Dilution with citrated cattle blood gives the desired concentration. About 20 unfed adult cat fleas (Ctenocephalides felis) are placed into a chamber which is closed at the top and bottom with gauze. A metal cylinder whose bottom end is closed with parafilm is placed onto the chamber. The cylinder contains the blood/active ingredient formulation, which can be imbibed by the fleas through the parafilm membrane. After 2 days, the kill in % is determined. 100% means that all of the fleas have been killed; 0% means that none of the fleas have been killed.

Experiment [12] has as its system Myzus persicae. Description: Myzus persicae oral test. To be noted: 120 h, application rate 4 ppm, after 5 days, read-out: efficacy. As for the experimental part: Myzus persicae—Oral Test Solvent: 100 parts by weight of acetone To produce a suitable active ingredient formulation, 1 part by weight of active ingredient is dissolved with the stated parts by weight of solvent and made up to the desired concentration with water. 50 μl of the active ingredient formulation are transferred into microtitre plates and made up to a final volume of 200 μl with 150 μl of IPL41 insect medium (33%+15% sugar). Subsequently, the plates are sealed with parafilm, which a mixed population of green peach aphids (Myzus persicae) within a second microtitre plate is able to puncture and imbibe the solution. After 5 days, the efficacy in % is determined. 100% means that all the aphids have been killed; 0% means that no aphids have been killed.

Experiment [13] deals with Phaedon cochleariae. Kind of experiment: Phaedon cochleariae spray test, Chinese cabbage leaf discs. To be noted: foliar, 168 h, application rate 100 g/ha, after 7 days, larvae, read-out: efficacy. The procedure: Phaedon cochleariae—Spray Test
To produce a suitable active ingredient formulation, 1 part by weight of active ingredient is dissolved with the specified parts by weight of solvent and made up to the desired concentration with water containing an emulsifier concentration of 1000 ppm. To produce further test concentrations, the formulation is diluted with emulsifier-containing water.
After 7 days, the efficacy in % is determined. 100% means that all the beetle larvae have been killed; 0% means that no beetle larvae have been killed.

Experiment [14] relates to Boophilus microplus. Description: Boophilus microplus injection test. The following applies: application rate 20 μg/animal, after 7 days, laying of fertile eggs. As for the experimental part:
Boophilus microplus—Injection Test Solvent: dimethyl sulfoxide To produce a suitable active ingredient formulation, 10 mg of active ingredient are mixed with 0.5 ml of solvent and the concentrate is diluted to the desired concentration with solvent. 1 μl of the active ingredient solution is injected into the abdomen of 5 engorged adult female cattle ticks (Boophilus microplus). The animals are transferred into dishes and kept in a climate-controlled room. Efficacy is assessed after 7 days by laying of fertile eggs. Eggs which are not visibly fertile are stored in a climate-controlled cabinet until the larvae hatch after about 42 days. An efficacy of 100% means that none of the ticks has laid any fertile eggs; 0% means that all the eggs are fertile.

Structures are written as SMILES.

Turning to `CCS(=O)(=O)c1ccc(-n2ncn(-c3ccc(Cl)cc3)c2=O)nc1-c1nc2cc(C(F)(F)F)ncc2n1C` [Prior art WO 2017/055185 (Ex. I-19), reference compound], the Emax at 100 g/ha in experiment [1] (100 g of ai/ha) turned out to be 0%; in experiment [6] (MYZUPE, 100 g of ai/ha, 5 dat, read-out: % efficacy) it was 0%. Also, the Emax at 500 g/ha in [1] (500 g of ai/ha) and in experiment [2] was 0% in each case. For the same compound, the Emax at 0.8 ppm in [3] was found to be 70%. For the same compound, in experiment [4], the Emax at 20 ppm was found to be 0%. Also, the Emax at 4 ppm in experiment [5] stood at 35%. Besides, the Emax at 20 g/ha in experiment [6] (MYZUPE, 20 g of ai/ha, 5 dat, read-out: % efficacy) worked out at 0%.
For `CCS(=O)(=O)c1ccc(-n2ccnn2)nc1-c1nc2cc(C(F)(F)F)nc(C)c2n1C` [Example I-013], the “efficacy (kill)” value came to 100% in experiment [7]; 100% in experiment [8]; 80% in [9] (application rate 20 ppm); 100% in experiment [9] (application rate 100 ppm); 100% in [11]. In addition, in experiment [10], the efficacy is recorded as 100%. In experiment [12], the pest or weed control at 4 ppm is 100%. Moreover, the Emax at 4 g/ha in experiment [6] (MYZUPE, 4 g of ai/ha, 5 dat, read-out: % efficacy) came to 70%. For the same compound, the pest or weed control at 100 g/ha in experiment [13] is 83%.
As for `CCS(=O)(=O)c1ccc(-n2cncn2)nc1-c1nc2cc(C(F)(F)F)nc(C)c2n1C` [Example I-003], the “efficacy (kill)” value in experiment [8], in [9] (application rate 100 ppm) and in experiment [11] was 100% throughout. The pest or weed control at 4 ppm in experiment [12] was determined as 100%. This compound had an efficacy in experiment [14] of 100%. Also, in experiment [6] (application rate 20 g/ha, after 5 days, read-out: efficacy), the pest or weed control at 20 g/ha is 90%. Moreover, in experiment [13], the pest or weed control at 100 g/ha stood at 83%.
